Reference: patent publication US20130183323A1, “TARGETED ANTIBIOTIC AND ANTIMICROBIAL TREATMENTS FOR PERSONALIZED ADMINISTRATION” (priority 2011, published 2013)
≈ marks a conversion by molar mass, not a printed value.

What was measured:
Assay in all cases: minimum inhibition concentration (MIC) for tetracycline
Format in all cases: cell-based
Details in all cases: tetracycline resistant isolate from aquaculture environment
Enterococcus sp. 18fT3 = test system: Enterococcus sp. 18fT3
Description: (§1) Study 1. The variability of antibiotic resistant (ART) bacteria in responding to drug treatment was evaluated using tetracycline resistant isolates in brain heart infusion (BHI) broth. […] All strains were isolated from aquaculture environment. The bacteria in different titer were grown in BHI with different concentration of tetracycline conjugated to antibody against Enterococcus.

[1] = test system: Plesiomonas shigelloides 17iT21
Description: as §1

Enterococcus sp. 17fT4 = test system: Enterococcus sp. 17fT4
Description: as §1

CN(C)[C@@H]1C(O)=C(C(N)=O)C(=O)[C@@]2(O)C(O)=C3C(=O)c4c(O)cccc4[C@@](C)(O)[C@H]3C[C@@H]12 [tetracycline]
MIC (Enterococcus sp. 18fT3): 512 mg/L (≈ 1150 µM) | MIC [1]: 64 mg/L (≈ 144 µM) | MIC (Enterococcus sp. 17fT4): 128 mg/L (≈ 288 µM)
